{"source": "ChEMBL document CHEMBL3085654", "about": "“Synthesis and evaluation of N-acylamino acids derivatives of triazenes. Activation by tyrosinase in human melanoma cell lines” (Eur J Med Chem, 2013)", "molecules": {"B1": {"name": "Tyrosinase (Agaricus bisporus), O42713 (protein)", "chain": "MSLIATVGPTGGVKNRLNIVDFVKNEKFFTLYVRSLELLQAKEQHDYSSFFQLAGIHGLPFTEWAKERPSMNLYKAGYCTHGQVLFPTWHRTYLSVLEQILQGAAIEVAKKFTSNQTDWVQAAQDLRQPYWDWGFELMPPDEVIKNEEVNITNYDGKKISVKNPILRYHFHPIDPSFKPYGDFATWRTTVRNPDRNRREDIPGLIKKMRLEEGQIREKTYNMLKFNDAWERFSNHGISDDQHANSLESVHDDIHVMVGYGKIEGHMDHPFFAAFDPIFWLHHTNVDRLLSLWKAINPDVWVTSGRNRDGTMGIAPNAQINSETPLEPFYQSGDKVWTSASLADTARLGYSYPDFDKLVGGTKELIRDAIDDLIDERYGSKPSSGARNTAFDLLADFKGITKEHKEDLKMYDWTIHVAFKKFELKESFSLLFYFASDGGDYDQENCFVGSINAFRGTAPETCANCQDNENLIQEGFIHLNHYLARDLESFEPQDVHKFLKEKGLSYKLYSRGDKPLTSLSVKIEGRPLHLPPGEHRPKYDHTQARVVFDDVAVHVIN"}}, "key": {"[1]": {"assay": "Half life in phosphate buffer assessed as mushroom tyrosinase-mediated prodrug conversion at 10^-5 M at pH 7.4 by HPLC analysis", "type": "ADME", "details": "agaricus bisporus, pH 7.4, 10 µM"}, "[2]": {"assay": "Half life in PBS buffer at 10^-5 M at pH 7.4 by HPLC analysis", "type": "ADME"}, "[3]": {"assay": "(§1) Induction of apoptosis in human MNT1 cells assessed as apoptotic/necrotic cells at 100 uM after 48 hrs by APC-labeled annexin V and 7-AAD staining-based flow cytometric analysis relative to control", "type": "functional"}, "MNT1 [4]": {"system": "MNT1", "assay": "Induction of apoptosis in human MNT1 cells assessed as apoptotic/necrotic cells after 48 hrs by APC-labeled annexin V and 7-AAD staining-based flow cytometric analysis", "type": "functional, cell-based"}, "[5]": {"assay": "(§2) Induction of apoptosis in human MNT1 cells assessed as apoptotic/necrotic cells at 50 uM after 48 hrs by APC-labeled annexin V and 7-AAD staining-based flow cytometric analysis relative to control", "type": "functional"}, "[6]": {"assay": "Half life in 80% human plasma at 10^-5 M by HPLC analysis", "type": "ADME, cell-free"}, "[7]": {"assay": "Octanol-phosphate buffer apparent partition coefficient, log P of the compound at pH7.4 after 30 mins by HPLC analysis", "type": "physicochemical", "details": "pH 7.4"}, "MNT1 [8]": {"system": "MNT1", "assay": "as §1", "type": "functional"}, "SK-MEL-30 [9]": {"system": "SK-MEL-30", "assay": "Induction of apoptosis in human SK-MEL-30 cells assessed as apoptotic/necrotic cells at 50 uM after 48 hrs by APC-labeled annexin V and 7-AAD staining-based flow cytometric analysis relative to control", "type": "functional"}, "SK-MEL-30 [10]": {"system": "SK-MEL-30", "assay": "Induction of apoptosis in human SK-MEL-30 cells assessed as apoptotic/necrotic cells at 100 uM after 48 hrs by APC-labeled annexin V and 7-AAD staining-based flow cytometric analysis relative to control", "type": "functional"}, "MNT1 [11]": {"system": "MNT1", "assay": "as §2", "type": "functional"}, "M8": {"system": "M8", "assay": "Induction of apoptosis in human M8 cells assessed as apoptotic/necrotic cells at 50 to 100 uM after 48 hrs by APC-labeled annexin V and 7-AAD staining-based flow cytometric analysis", "type": "functional, cell-based"}, "[12]": {"assay": "Stability in phosphate buffer assessed as mushroom tyrosinase-mediated prodrug conversion at 10^-5 M at pH 7.4 after 1 hr by HPLC analysis in presence of mushroom tyrosinase", "type": "ADME", "details": "agaricus bisporus, pH 7.4, 1 h, 10 µM"}, "[13]": {"assay": "Chemical stability in PBS buffer at 10^-5 M at pH 7.4 after 15 days by HPLC analysis", "type": "physicochemical", "details": "pH 7.4, 360 h, 10 µM"}, "[14]": {"substrate": "CC(=O)N[C@@H](Cc1ccc(O)cc1)C(=O)N(C)/N=N/c1ccc(C#N)cc1", "assay": "(§3) Activity at mushroom tyrosinase by Michaelis-Menten plot analysis", "details": "Agaricus bisporus"}, "[15]": {"substrate": "COC(=O)c1ccc(/N=N/N(C)C(=O)[C@H](Cc2ccc(O)cc2)NC(C)=O)cc1", "assay": "as §3", "details": "Agaricus bisporus"}, "[16]": {"substrate": "N[C@@H](Cc1ccc(O)cc1)C(=O)O", "assay": "as §3", "details": "Agaricus bisporus"}, "[17]": {"substrate": "NCCc1ccc(O)c(O)c1", "assay": "as §3", "details": "Agaricus bisporus"}, "[18]": {"substrate": "NCCc1ccc(O)cc1", "assay": "as §3", "details": "Agaricus bisporus"}, "[19]": {"substrate": "CC(=O)N[C@@H](Cc1ccc(O)cc1)C(=O)N(C)/N=N/c1ccc(C#N)cc1", "assay": "(§4) Ratio of Kcat to Km for mushroom tyrosinase", "details": "Agaricus bisporus"}, "[20]": {"substrate": "COC(=O)c1ccc(/N=N/N(C)C(=O)[C@H](Cc2ccc(O)cc2)NC(C)=O)cc1", "assay": "as §4", "details": "Agaricus bisporus"}}, "note": "Calls of active or inactive are those of the source. The rule behind the calls is not given here."}
{"molecule": "CCOC(=O)c1ccc(/N=N/N(C)C(=O)[C@H](Cc2ccc(O)cc2)NC(C)=O)cc1", "values": [{"measurement": "t1/2", "setting": "[1]", "value": 0.3, "unit": "h"}, {"measurement": "half-life at 10 µM", "setting": "[2]", "value": 70.3, "unit": "h"}, {"measurement": "Activity", "setting": "[3]", "value": 21.23, "unit": "%"}, {"measurement": "Activity", "setting": "MNT1 [4]", "value": "Dose-dependent effect"}, {"measurement": "Activity", "setting": "[5]", "value": 17.46, "unit": "%"}, {"measurement": "half-life at 10 µM", "setting": "[6]", "value": 5.32, "unit": "h"}, {"measurement": "logD at 0.5 h", "setting": "[7]", "value": 2.96}]}
{"molecule": "CC(=O)N[C@@H](Cc1ccc(O)cc1)C(=O)N(C)/N=N/c1ccc(C(C)=O)cc1", "values": [{"measurement": "t1/2", "setting": "[1]", "value": 0.33, "unit": "h"}, {"measurement": "half-life at 10 µM", "setting": "[2]", "value": 56.6, "unit": "h"}, {"measurement": "Activity", "setting": "[3]", "value": 11.23, "unit": "%"}, {"measurement": "Activity", "setting": "MNT1 [4]", "value": "Dose-dependent effect"}, {"measurement": "Activity", "setting": "[5]", "value": 7.88, "unit": "%"}, {"measurement": "half-life at 10 µM", "setting": "[6]", "value": 1.41, "unit": "h"}, {"measurement": "logD at 0.5 h", "setting": "[7]", "value": 2.33}]}
{"molecule": "Cn1nnc2c(C(N)=O)ncn2c1=O", "values": [{"measurement": "Activity", "setting": "MNT1 [8]", "value": "Active"}, {"measurement": "Activity", "setting": "SK-MEL-30 [9]", "value": "Active"}, {"measurement": "Activity", "setting": "SK-MEL-30 [10]", "value": "Active"}, {"measurement": "Activity", "setting": "MNT1 [11]", "value": "Active"}, {"measurement": "Activity", "setting": "M8", "value": "Active"}]}
{"molecule": "CC(=O)N[C@@H](Cc1ccc(O)cc1)C(=O)N(C)/N=N/c1ccc(C(N)=O)cc1", "values": [{"measurement": "t1/2", "setting": "[1]", "value": 0.29, "unit": "h"}, {"measurement": "half-life at 10 µM", "setting": "[2]", "value": 40.6, "unit": "h"}, {"measurement": "half-life at 10 µM", "setting": "[6]", "value": 5.19, "unit": "h"}, {"measurement": "logD at 0.5 h", "setting": "[7]", "value": 1.27}]}
{"molecule": "COC(=O)c1ccc(/N=N/N(C)C(=O)[C@H](Cc2ccc(O)cc2)NC(C)=O)cc1", "values": [{"measurement": "t1/2", "setting": "[1]", "value": 0.305, "unit": "h"}, {"measurement": "half-life at 10 µM", "setting": "[2]", "value": 75.1, "unit": "h"}, {"measurement": "half-life at 10 µM", "setting": "[6]", "value": 2.8, "unit": "h"}, {"measurement": "logD at 0.5 h", "setting": "[7]", "value": 2.12}]}
{"molecule": "CN(/N=N/c1ccc(C#N)cc1)C(=O)[C@H](Cc1ccc(O)cc1)NC(=O)OC(C)(C)C", "values": [{"measurement": "Stability", "setting": "[12]", "value": "Stable"}, {"measurement": "half-life at 10 µM", "setting": "[2]", "value": 48.5, "unit": "h"}, {"measurement": "half-life at 10 µM", "setting": "[6]", "value": 8.1, "unit": "h"}, {"measurement": "logD at 0.5 h", "setting": "[7]", "value": 3.9}]}
{"molecule": "CC(=O)c1ccc(/N=N/N(C)C(=O)[C@H](Cc2ccc(O)cc2)NC(=O)OC(C)(C)C)cc1", "values": [{"measurement": "Stability", "setting": "[12]", "value": "Stable"}, {"measurement": "half-life at 10 µM", "setting": "[2]", "value": 72.2, "unit": "h"}, {"measurement": "half-life at 10 µM", "setting": "[6]", "value": 9.54, "unit": "h"}, {"measurement": "logD at 0.5 h", "setting": "[7]", "value": 3.85}]}
{"molecule": "CC(=O)N[C@@H](Cc1ccc(O)cc1)C(=O)N(C)/N=N/c1ccc(C#N)cc1", "values": [{"measurement": "t1/2", "setting": "[1]", "value": 0.26, "unit": "h"}, {"measurement": "half-life at 10 µM", "setting": "[2]", "value": 42.7, "unit": "h"}, {"measurement": "Activity", "setting": "[3]", "value": 17.01, "unit": "%"}, {"measurement": "Activity", "setting": "MNT1 [4]", "value": "Dose-dependent effect"}, {"measurement": "Activity", "setting": "SK-MEL-30 [9]", "value": 10.41, "unit": "%"}, {"measurement": "Activity", "setting": "SK-MEL-30 [10]", "value": 12.47, "unit": "%"}, {"measurement": "Activity", "setting": "[5]", "value": 8.5, "unit": "%"}, {"measurement": "Activity", "setting": "M8", "value": "inactive"}, {"measurement": "half-life at 10 µM", "setting": "[6]", "value": 1.23, "unit": "h"}, {"measurement": "logD at 0.5 h", "setting": "[7]", "value": 2.14}]}
{"molecule": "CC(=O)N[C@@H](Cc1ccc(O)cc1)C(=O)N(C)/N=N/c1ccc(Br)cc1", "values": [{"measurement": "t1/2", "setting": "[1]", "value": 0.148, "unit": "h"}, {"measurement": "Stability", "setting": "[13]", "value": "Stable"}, {"measurement": "half-life at 10 µM", "setting": "[6]", "value": 6.8, "unit": "h"}, {"measurement": "logD at 0.5 h", "setting": "[7]", "value": 3.36}]}
{"molecule": "B1", "values": [{"measurement": "Km", "setting": "[14]", "value": 200, "unit": "µM"}, {"measurement": "Vmax", "setting": "[14]", "value": 5.4, "unit": "×10⁻⁶ mM/min"}, {"measurement": "kcat", "setting": "[14]", "value": 0.03, "unit": "s⁻¹"}, {"measurement": "Km", "setting": "[15]", "value": 220, "unit": "µM"}, {"measurement": "Vmax", "setting": "[15]", "value": 9.7, "unit": "×10⁻⁶ mM/min"}, {"measurement": "kcat", "setting": "[15]", "value": 0.05, "unit": "s⁻¹"}, {"measurement": "Km", "setting": "[16]", "value": 250, "unit": "µM"}, {"measurement": "Km", "setting": "[17]", "value": 280, "unit": "µM"}, {"measurement": "Km", "setting": "[18]", "value": 540, "unit": "µM"}, {"measurement": "kcat/Km", "setting": "[19]", "value": 151, "unit": "M⁻¹ s⁻¹"}, {"measurement": "kcat/Km", "setting": "[20]", "value": 246, "unit": "M⁻¹ s⁻¹"}]}
